The term IC50 denotes the point on the concentration scale where inhibition reaches its midpoint. Low values mean greater potency, high ones weaker potency.

The target in the test is T1, FimH (Escherichia coli, UniProt P08191).
T1 construct: with FimC (C-terminal His tag); FimG Nte peptide in the assay
Kind of test: SDS-PAGE donor strand exchange assay with purified FimChis:FimH ([…]) and FimG Nte peptide ([…]), concentration-response. It counts as biochemical.

T1 sequence (P08191 22-300): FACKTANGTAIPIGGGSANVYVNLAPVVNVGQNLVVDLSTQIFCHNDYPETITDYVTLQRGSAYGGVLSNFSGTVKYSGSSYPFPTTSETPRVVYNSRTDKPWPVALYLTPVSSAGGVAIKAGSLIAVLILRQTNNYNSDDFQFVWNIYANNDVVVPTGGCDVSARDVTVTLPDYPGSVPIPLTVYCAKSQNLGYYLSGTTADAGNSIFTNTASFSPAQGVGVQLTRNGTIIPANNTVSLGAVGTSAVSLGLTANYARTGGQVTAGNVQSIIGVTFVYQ
T1 sequence (P31697 37-241, further chain): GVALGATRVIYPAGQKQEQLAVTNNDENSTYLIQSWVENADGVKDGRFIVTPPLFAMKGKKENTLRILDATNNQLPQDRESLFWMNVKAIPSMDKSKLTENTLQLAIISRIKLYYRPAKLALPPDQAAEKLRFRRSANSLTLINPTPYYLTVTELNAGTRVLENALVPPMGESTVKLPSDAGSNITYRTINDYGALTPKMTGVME
T1 sequence (P08190 24-167, further chain): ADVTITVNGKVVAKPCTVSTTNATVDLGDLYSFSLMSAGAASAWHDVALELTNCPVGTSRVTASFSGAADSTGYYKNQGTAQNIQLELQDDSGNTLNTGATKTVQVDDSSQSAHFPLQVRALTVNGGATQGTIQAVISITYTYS

The molecule `O=C(CSc1nnc(-c2ccc(S(=O)(=O)N3CCCC3)cc2)o1)Nc1ccc(Cl)cc1` [AL1, N-(4-chloro-phenyl)-2-{5-[4-(pyrrolidine-1-sulfonyl)-phenyl]-[1,3,4]oxadiazol-2-ylsulfanyl}-acetamide] showed an IC50 of 286 µM.
